Experiments:
PAF receptor = molecular target: T1, PAF receptor (Homo sapiens, UniProt P25105); test: Inhibition of [3H]-PAF receptor binding to human platelet plasma membrane (isotopic labelling and filtration); settings: human platelet membranes, 0.5 nM [3H]-PAF, 0° C., 1 hour
T1 construct: Platelet concentrates were obtained from a hospital blood bank; from tissue; host or cells: human platelets (plasma membrane fraction of lysed platelets from hospital blood bank concentrates)
Procedure: Compounds of general formula I inhibit PAF-induced functions in both the cellular and tissue levels by changing the PAF binding to its specific receptor site. The ability of compounds of general formula I to inhibit the binding of PAF to its specific receptor binding site on human platelet plasma membranes was measured according to the pharmacological example. […] Platelet concentrates were obtained from a hospital blood bank. These platelet concentrates (500-2500 ml.) were centrifuged at 800 rpm for 10 minutes in a SORVALL RC3B centrifuge to remove the red blood cells present. (The word SORVALL is a trade mark.) The supernatant was subsequently centrifuged at 3,000 rpm in a SORVALL RC3B centrifuge to pellet the platelets present. The platelet rich pellets were resuspended in a minimum volume of buffer (150 mM NaCl, 10 mM Tris, 2 mM EDTA, pH 7.5) and layered onto Ficoll-Paque gradients, 9 ml platelet concentrate to 2 ml Ficoll, and centrifuged at 1,900 rpm for 15 minutes in a SORVALL RT6000 centrifuge. This step removes the residual red blood cells and other nonspecific material such as lymphocytes from the preparation. The platelets which form a band between the plasma and the Ficoll were removed, resuspended in the above buffer and centrifuged at 3,000 rpm for 10 minutes in a SORVALL RT6000 centrifuge. The pelleted platelets were resuspended in buffer (10 mM Tris, 5mM MgCl2, 2 mM EDTA, pH 7.0), snap freezed in liquid N2 and allowed to thaw slowly at room temperature in order to lyse the platelets. The latter step was repeated at least 3 times to ensure proper lysis. The lysed platelets were centrifuged at 3,000 rpm for 10 minutes in a SORVALL RT6000 centrifuge and resuspended in buffer. The latter step was repeated twice in order to remove any cytoplasmic proteins which may hydrolyse the […]. The prepared platelet membranes may be stored at -70° C. After thawing the prepared membranes were centrifuged in a SORVALL RT6000 at 3,000 rpm for 10 minutes and resuspended in assay buffer. The assay was conducted by preparing a series of Tris-buffered solutions of the selected antagonist of predetermined concentrations. […] Incubation was initiated by the addition of 100 μg of the isolated membrane fraction to each of the above solutions at 0° C. […] (The word WHATMAN is a trade mark.) The residue in each case was rapidly washed 4 times with 5 ml cold (4° C.) Tris-buffer solution. […] % Inhibition=[(TB-TBA)/SB]x100 where the specific binding SB=TB-NSB […]

[1] = tested on: PAF-induced hypotension in the rat; test: Reversal of PAF-induced hypotension in anaesthetised rats; format: in vivo, rat (male Sprague-Dawley); settings: for ED50: iv, i.v. bolus, PAF 100 ng/kg/min i.v., straight line interpolation, read-out: ED50 (dose to cause 50% reversal of the hypotensive PAF response); for inhibition of PAF-induced hypotension: @ 1 mg/kg i.v.
Procedure: Male Sprague-Dawley rats (300-400 g) were anaesthetised with a mixture of sodium pentobarbitone, 22.5 mg·kg^-1 and thiopental 62.5 mg·kg^-1. Through a midline incision in the neck, the trachea was cannulated and the animals breathed spontaneously. A carotid artery was cannulated for the measurement of blood pressure and this signal was used to trigger a rate meter to measure heart rate. Both jugular veins were cannulated: one for the infusion of PAF and the other for the bolus administration of test compounds.
PAF, 100 ng·kg^-1 .min^-1 was infused i.v. until a sustained fall in mean blood pressure of 50 mmHg was achieved. […] The peak of this reversal was measured and the dose to cause a 50% reversal of the hypotensive PAF response (ED50) calculated by straight line interpolation and the results are presented in Table 2.

[2] = tested on: PAF-induced bronchoconstriction in the guinea pig; test: Reversal of PAF-induced bronchoconstriction in anaesthetised guinea-pigs (modified Konzett-Rossler); format: in vivo, guinea-pig (male Dunkin-Hartley); settings: Cavia porcellus, iv, PAF 40 ng/kg/min i.v., read-out: ED50 (dose resulting in 50% reversal of PAF-induced bronchoconstriction)
Procedure: The inhibition of PAF induced bronchoconstriction was measured in anaesthetised artificially ventilated guinea-pigs (450-500 g) using a modified version of the Konzett-Rossler technique (Konzett M and Rossler R, Naunym-Schmiedeb. Arch. Exp. Pathol. Pharmakol., 1940, 197, 71). Male Dunkin-Hartley guinea-pigs were anaesthetised with urethane, 1.6 g·kg^-1. Through a midline neck incision, the trachea was cannulated and the animal ventilated with a constant tidal volume set between 5 and 15 ml, to give a tracheal inflation pressure of 15 mmHg at a rate of 40 per minute. A carotid artery was cannulated for the measurement of blood pressure and heart rate and both jugular veins were cannulated, one for the infusion of PAF and the other for the administration of test compounds. PAF, 40 ng·kg^-1 ·min^-1, was infused i.v. to produced a 100% increase in tracheal inflation pressure, and bronchoconstrictor effects were determined.

T1 sequence (P25105 whole entry): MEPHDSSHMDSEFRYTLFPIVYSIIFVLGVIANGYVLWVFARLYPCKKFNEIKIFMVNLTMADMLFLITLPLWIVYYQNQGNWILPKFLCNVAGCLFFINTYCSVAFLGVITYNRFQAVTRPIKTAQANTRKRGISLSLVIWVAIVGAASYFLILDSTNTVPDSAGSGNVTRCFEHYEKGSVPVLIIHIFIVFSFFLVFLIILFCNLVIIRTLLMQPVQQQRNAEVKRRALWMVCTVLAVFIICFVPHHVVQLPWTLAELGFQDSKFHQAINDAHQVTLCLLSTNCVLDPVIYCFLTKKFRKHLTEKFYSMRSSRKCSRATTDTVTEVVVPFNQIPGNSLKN

COc1ccc([C@H]2CC[C@@H](OCCCCCc3cccnc3)O2)cc1OC (relative stereo) [Example 5B, O-(5-(3-Pyridyl)pentyl)-5-(3,4-dimethoxyphenyl)-gamma-butyrolactol ether]
IC50 (PAF receptor): 1500 nM

COc1ccc(C2CCC(OC(C)CCc3cccnc3)O2)cc1OC (stereo not drawn) [Example 12, O-(1-Methyl-3-(3-pyridyl)propyl)-5-(3,4-dimethoxyphenyl)-gamma-butyrolactolether]
IC50 (PAF receptor): 3000 nM

COc1ccc(C2CCC(OCCC#Cc3cccnc3)O2)cc1OC (stereo not drawn) [Example 2, O-(4-(3-Pyridyl)but-3-ynyl)-5-(3,4-dimethoxyphenyl)-gamma-butyrolactol ether]
IC50 (PAF receptor): 4000 nM

COc1ccc(C2CCC(OCc3csc(-c4cccnc4)n3)O2)cc1OC (stereo not drawn) [Example 27, O-((2-(3-Pyridyl)-4-thiazolyl)methyl)-5-(3,4-dimethoxyphenyl)-gamma-butyrolactol ether]
IC50 (PAF receptor): 10000 nM | ED50 [1]: 120 µg/kg

COc1ccc(C2CCC(OCCCn3c(C)nnc3C)O2)cc1OC (stereo not drawn) [Example 29, O-(3-(3,5-Dimethyl-1,2,4-triazol-4-yl)propyl)-5-(3,4-dimethoxyphenyl)-gamma-butyrolactol ether]
IC50 (PAF receptor): 250 nM

COc1ccc([C@H]2CC[C@@H](OC/C=C/c3cccnc3)O2)cc1OC (relative stereo) [Example 10B, E-O-(3-(3-Pyridyl)prop-2-enyl)-5-(3,4-dimethoxyphenyl)-gamma-butyrolactol ether]
IC50 (PAF receptor): 150 nM

COc1ccc([C@H]2CC[C@H](OCCCCCc3cccnc3)O2)cc1OC (relative stereo) [Example 5A, O-(5-(3-Pyridyl)pentyl)-5-(3,4-dimethoxyphenyl)-gamma-butyrolactol ether]
IC50 (PAF receptor): 12000 nM

Cc1nc2cnccc2n1CCCOC1CCC(c2ccc(F)cc2)O1 (stereo not drawn) [Example 33, O-(3-(1H-2-Methylimidazo[4,5-c]pyridyl)propyl)-5-(4-fluorophenyl)-gamma-butyrolactol ether]
IC50 (PAF receptor): 7 nM | ED50 [1]: 1 µg/kg

COc1ccc(C2CCC(OCc3ccc(Cn4c(C)nc5ccccc54)cc3)O2)cc1OC (stereo not drawn) [Example 24, O-((4-(1H-2-Methylbenzimidazylmethyl)phenyl)methyl)-5-(3,4-dimethoxyphenyl)-gamma-butyrolactol ether]
IC50 (PAF receptor): 2000 nM

COc1ccc([C@H]2CC[C@@H](OCCCc3ccc[n+](C)c3)O2)cc1OC (relative stereo) [Comparative Example B, cis-O-(3-(3-N-methylpyridyl)propyl)-5-(3,4-dimethoxyphenyl)-gamma-butyrolactol ether iodide, reference compound]
IC50 (PAF receptor): 1000 nM | inhibition of PAF-induced hypotension [1]: 10% | ED50 [1]: > 1000 µg/kg

COc1ccc(C2CCC(OCCCCn3c(C)nc4cnccc43)O2)cc1OC (stereo not drawn) [Example 31, O-(4-(1H-2-Methylimidazo[4,5-c]pyridyl)butyl)-5-(3,4-dimethoxyphenyl)-gamma-butyrolactol ether]
ED50 [1]: 3 µg/kg

COc1ccc([C@H]2CC[C@H](OCCCC/C=C\c3cccnc3)O2)cc1OC (relative stereo) [Example 7A, Z-O-(6-(3-Pyridyl)hex-5-enyl)-5-(3,4-dimethoxyphenyl)-gamma-butyrolactol ether]
IC50 (PAF receptor): 12000 nM

COc1ccc([C@H]2CC[C@@H](OCCCn3c(C)nc4cnccc43)O2)cc1OC (relative stereo) [Example 30A, O-(3-(1H-2-Methylimidazo[4,5-c]pyridyl)propyl)-5-(3,4-dimethoxyphenyl)-gamma-butyrolactol ether]
IC50 (PAF receptor): 25 nM

COc1ccc([C@H]2CC[C@H](OCCCc3cccnc3)O2)cc1OC (relative stereo) [Example 1A, trans-O-(3-(3-pyridyl)propyl)-5-(3,4-dimethoxyphenyl)-gamma-butyrolactol ether]
IC50 (PAF receptor): 4000 nM | ED50 [1]: 27 µg/kg

Cc1nc2cnccc2n1CCCOC1CCC(c2ccc(Br)cc2)O1 (stereo not drawn) [Example 34, O-(3-(1H-2-Methylimidazo[4,5-c]pyridyl)propyl)-5-(4-bromophenyl)-gamma-butyrolactol ether]
IC50 (PAF receptor): 10 nM

Cc1nc2cnccc2n1CCCOC1CCC(c2ccc(Cl)c(Cl)c2)O1 (stereo not drawn) [Example 35, O-(3-(1H-2-Methylimidazo[4,5-c]pyridyl)propyl)-5-(3,4-dichlorophenyl)-gamma-butyrolactol ether]
IC50 (PAF receptor): 5 nM | ED50 [1]: 2 µg/kg

COc1ccc(C2CCC(OCCCC/C=C\c3cccnc3)O2)cc1OC (stereo not drawn) [Example 7B, Z-O-(6-(3-Pyridyl)hex-5-enyl)-5-(3,4-dimethoxyphenyl)-gamma-butyrolactol ether]
IC50 (PAF receptor): 2000 nM

COc1ccc(C2CCC(OCCCn3c(C)nc4cnccc43)O2)cc1Cl (stereo not drawn) [Example 36, O-(3-(1H-2-Methylimidazo[4,5-c]pyridyl)propyl)-5-(3-chloro-4-methoxyphenyl)-gamma-butyrolactol ether]
IC50 (PAF receptor): 3 nM | ED50 [1]: 2 µg/kg

COc1ccc(C2CCC(OCc3ccc(-n4c(C)nc5ccccc54)cc3)O2)cc1OC (stereo not drawn) [Example 23, O-((4-(1H-2-Methylbenzimidazyl)phenyl)methyl)-5-(3,4-dimethoxyphenyl)-gamma-butyrolactol ether]
IC50 (PAF receptor): 900 nM

COc1ccc([C@H]2CC[C@H](OCCCc3ccc[n+](C)c3)O2)cc1OC (relative stereo) [Comparative Example A, trans-O-(3-(3-N-methylpyridyl)propyl)-5-(3,4-dimethoxyphenyl)-gamma-butyrolactol ether iodide, reference compound]
IC50 (PAF receptor): 3000 nM | inhibition of PAF-induced hypotension [1]: 31% | ED50 [1]: > 1000 µg/kg

COc1ccc([C@H]2CC[C@H](OCCCCC#Cc3cccnc3)O2)cc1OC (relative stereo) [Example 6A, O-(6-(3-Pyridyl)hex-5-ynyl)-5-(3,4-dimethoxyphenyl)-gamma-butyrolactol ether]
IC50 (PAF receptor): 3000 nM

COc1ccc([C@H]2CC[C@H](OC/C=C/c3cccnc3)O2)cc1OC (relative stereo) [Example 10A, E-O-(3-(3-Pyridyl)prop-2-enyl)-5-(3,4-dimethoxyphenyl)-gamma-butyrolactol ether]
IC50 (PAF receptor): 1000 nM

COc1ccc(C2CCC(OCCCn3c(C)nc4cnccc43)O2)cc1OC (stereo not drawn) [Example 30, O-(3-(1H-2-Methylimidazo[4,5-c]pyridyl)propyl)-5-(3,4-dimethoxyphenyl)-gamma-butyrolactol ether]
IC50 (PAF receptor): 15 nM | ED50 [1]: 1 µg/kg | ED50 [2]: 0.4 µg/kg

COc1ccc(C2CCC(OCCCC#Cc3cccnc3)O2)cc1OC (stereo not drawn) [Example 4, O-(5-(3-Pyridyl)pent-4-ynyl)-5-(3,4-dimethoxyphenyl)-gamma-butyrolactol ether]
IC50 (PAF receptor): 5000 nM

COc1ccc(C2CCC(OCCCCc3cccnc3)O2)cc1OC (stereo not drawn) [Example 3, O-(4-(3-Pyridyl)butyl)-5-(3,4-dimethoxyphenyl)-gamma-butyrolactol ether]
IC50 (PAF receptor): 6000 nM
